Test results: the METLIN SMRT retention time set (Domingo-Almenara et al. 2019)

Assay: gradient 5% acetonitrile 3 min, to 50% in 2 min, to 85% in 15 min, held 3 min, 100 µL/min
Conditions: column: Zorbax Extend-C18 2.1 x 50 mm; eluents: water / acetonitrile, 0.1% formic acid
Procedure, shortened: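 Values are retention times taken from adduct peaks that software picked and an analyst inspected. The pure standards were run as mixtures of ~100 molecules on HPLC linked to a quadrupole time-of-flight mass spectrometer, in positive and negative ionization mode. A Zorbax Extend-C18 column (2.1 × 50 mm, 1.8 μm) was used at 100 μL/min with water and acetonitrile, each including 0.1% formic acid.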

Row | RP-LC retention time | Compound
1 | 1000 s | CCOc1cccc(-c2noc(Cn3c(=O)n(-c4ccc(OC)cc4)c(=O)c4sccc43)n2)c1
2 | 718 s | CN(C)C(=O)c1csc(S(=O)(=O)N2CCC(C(=O)NCc3cccs3)CC2)c1
3 | 627 s | Cc1c(CN2CCC(N(C(=O)NCCc3ccccc3)C3CCOCC3)CC2)cnn1C
4 | 568 s | Cc1cc(C)c2c(N3CCCCC3)nc(C(=O)NC(C)c3cccnc3)nc2n1 (stereo not drawn)
5 | 857 s | O=C(Nc1ccc2c(c1)N(C(=O)c1cccs1)CC2)c1c(F)cccc1Cl
6 | 901 s | Cc1cc(C)cc(S(=O)(=O)N2CCCN(c3ccc(=O)n(-c4ccccc4)n3)CC2)c1
7 | 791 s | CC(=O)N1CCc2cc(N3CC(C(=O)Nc4cccc(C(F)(F)F)c4)CC3=O)ccc21 (stereo not drawn)
8 | 632 s | CCc1ccc(NC(=O)N2CCN(CCn3c(CC)nc4cccnc43)CC2)cc1
9 | 755 s | COc1ccc(C)cc1NC(=O)C1CC(=O)N(c2n[nH]c3ccccc23)C1 (stereo not drawn)
10 | 941 s | CC1CCCN(c2nc(-c3ccc(Cl)cc3)nc3ccccc23)C1 (stereo not drawn)
11 | 660 s | NC1=NC(=O)/C(=C/c2ccccc2OCC(=O)Nc2ccc(F)cc2)S1
12 | 836 s | COc1ccccc1NC(=O)N1C[C@@H]2CN(S(=O)(=O)c3ccc(C)cc3)C[C@H](C1)O2
13 | 1150 s | Cc1ccc(-c2noc(Cn3c(=O)n(-c4ccc(Cl)cc4)c(=O)c4sccc43)n2)cc1C
14 | 890 s | CN1c2ccccc2C(=O)N2CCc3c([nH]c4ccccc34)C21 (stereo not drawn)
15 | 667 s | Cc1noc(-c2ccc(=O)n(CC(=O)Nc3ccccc3)c2)n1
16 | 826 s | COc1ccc(C2(C(=O)N3C[C@H]4C[C@H](C3)[C@H]3CCCC(=O)N3C4)CCCCC2)cc1
17 | 879 s | O=C(c1ccc(-c2noc(C3CCC3)n2)cc1)N1CCCC1
18 | 756 s | CC(NC(=O)c1ccccc1)c1nc(-c2ccc3c(c2)nnn3C)no1 (stereo not drawn)
19 | 612 s | COc1ccc(-c2nc3cnccn3c2Nc2ccc(C(N)=O)cc2)cc1
20 | 892 s | Cn1c(C(=O)NCc2ccccc2)cc2sccc21
21 | 601 s | Cc1cc(C)c(S(=O)(=O)N(CCN2CCCCC2C)CC(=O)N2CCNCC2)cc1C (stereo not drawn)
22 | 600 s | CCN1CCN(c2ccc(NC(=O)c3ccc(C)c(N4CCCC4=O)c3)cn2)C1=O

Row | RP-LC retention time | Compound
23 | 990 s | Cn1nc(-c2nnc(-c3ccc(F)cc3)o2)c2c1CCN(S(=O)(=O)c1ccccc1Cl)C2
24 | 702 s | COc1ccc(-c2nc(Nc3nc(C)cc(C)n3)sc2CCC(=O)O)cc1
25 | 763 s | COCCN1C(=O)CCc2cc(NS(=O)(=O)c3ccccc3Br)ccc21
26 | 592 s | O=C(C1CCCN(c2ncnc3c2nc2n3CCCCC2)C1)N1CCN(c2ccccn2)CC1 (stereo not drawn)
27 | 634 s | COc1cccc(C(O)CN2CCN(c3ccccc3)CC2)c1 (stereo not drawn)
28 | 640 s | CC(C)CC(=O)N1CCC(C(=O)N2CCCCCCNC(=O)CC2)CC1
29 | 734 s | Cc1ccc(-c2nc3cnccn3c2NCCC(=O)NC(C)c2cccs2)cc1 (stereo not drawn)
30 | 793 s | COc1ccc(CNC(=O)CN2CCN(Cc3ccc(F)cc3)C2=O)c(OC)c1
31 | 687 s | CCOc1ccc(CNC(=O)c2cn3ccccc3n2)cc1
32 | 781 s | CCCCN1C(=O)C(C)(C(=O)NCCOC)Oc2cccnc21 (stereo not drawn)
33 | 860 s | O=C(COc1ccccc1F)Nc1ccc2c(c1)CCC(=O)N2Cc1ccccc1
34 | 707 s | Cc1ccc(S(=O)(=O)N2CCCC(Cn3c(C)nc4cccnc43)C2)cc1 (stereo not drawn)
35 | 804 s | Cn1cc(-c2ccccc2)cc1C(=O)N1CCOCC1
36 | 1020 s | Cc1nc(C2CN(S(=O)(=O)c3c(C)c(C)cc(C)c3C)CC23CCOCC3)no1 (stereo not drawn)
37 | 859 s | Cc1ccc(C)c(NS(=O)(=O)c2cc3c(s2)CCN(C(=O)C2CCC2)C3)c1
38 | 689 s | Cc1nc(C(=O)NCCc2ccc(Cl)cc2)c(C)n1C1CCN(S(C)(=O)=O)CC1
39 | 636 s | Cc1cc(C(=O)NCC23CCCC=C2NC(=O)CC3)n(C)n1 (stereo not drawn)
40 | 860 s | COc1ccc(OC)c(S(=O)(=O)N2CCCN(C)c3ccccc32)c1
41 | 714 s | CC(Cc1ccco1)NC(=O)C1CC(=O)N(c2ccc(F)cc2)C1 (stereo not drawn)
42 | 592 s | O=C(C1CCN(c2nc3ccc(-c4cccnc4)nc3s2)CC1)N1CCOCC1
43 | 942 s | CCCn1cc(S(=O)(=O)Nc2ccc(Cl)cc2)c2cccnc21
44 | 918 s | O=C(CS(=O)(=O)c1cn(Cc2cccc(F)c2)c2ccccc12)Nc1ccc(F)cc1

Row | RP-LC retention time | Compound
45 | 840 s | COc1ccccc1N1CCN(c2cc(SCC(=O)NCc3ccc4c(c3)OCO4)ncn2)CC1
46 | 1320 s | CCOc1nc2ccccc2nc1N1CCCC(C(=O)Nc2ccc(Br)cc2C)C1 (stereo not drawn)
47 | 614 s | CC1CCc2[nH]nc(C(N)=O)c2C1 (stereo not drawn)
48 | 785 s | CC(C)c1ccc(S(=O)(=O)N2CCc3nn(C)c(=O)n3CC2)cc1
49 | 766 s | O=C(C1CC(=O)N(c2n[nH]c3ccccc23)C1)N1CCC(c2noc3cc(F)ccc23)CC1 (stereo not drawn)
50 | 734 s | COc1cc(=O)n2c(c1C(=O)NC1CCCCCCC1)CCCC2
51 | 634 s | O=C1CSCc2nc3ccccc3n21
52 | 1020 s | O=C(Cc1cccc(Cl)c1)N1CCc2cc(-c3ccno3)ccc21
53 | 1090 s | N#CC(c1ccccc1)C(C/C(=N\O)c1ccccc1)c1ccccc1 (stereo not drawn)
54 | 1070 s | Cc1ccc2c(c1)OCC(=O)N2Cc1nc(-c2cccc(F)c2)no1
55 | 1230 s | Cn1nccc1-c1nc(-c2ccc3oc(-c4ccccc4)nc3c2)no1
56 | 643 s | Cc1c(C(=O)N2CCOc3ccc(-c4ccc(N)nc4)cc3C2)ccc(S(C)(=O)=O)c1F
57 | 763 s | Cc1cccc(NC(=O)C2CC(=O)N(c3ccc4c(c3)CCN4C(=O)C3CC3)C2)c1C (stereo not drawn)
58 | 827 s | CCc1noc(NC(C)=O)c1-c1ccc(C)c(S(=O)(=O)Nc2c(Cl)cc(OC)cc2OC)c1
59 | 634 s | CN(C)C(=O)c1n[nH]c2c1CN(C(=O)c1ccc(Br)cc1)CC2
60 | 715 s | Cc1cccn2c(NC(=O)c3ccc(Br)cc3)c(-c3ccccc3)nc12
61 | 959 s | Cc1ccc(N2CCN(Cc3nc(-c4ccc(N5CCSCC5)nc4)no3)CC2)cc1
62 | 1260 s | CCc1ccc(S(=O)(=O)N2CCCC2c2nc(-c3cccc(C)c3)no2)cc1 (stereo not drawn)
63 | 846 s | Cc1nc2nc(-c3ccccc3)nn2c(C)c1CC(=O)N1CCC(C)CC1
64 | 1060 s | Cc1ccc(N2C(=O)N(Cc3ccccc3)S(=O)(=O)c3cccnc32)cc1
65 | 1030 s | O=C1c2ccccc2C(=O)c2sc(Nc3ccc(Cl)cc3)nc21
66 | 786 s | CCOc1ccccc1-c1c(C#N)c(N)nc2c1c(=O)n(C)c(=O)n2C

Row | RP-LC retention time | Compound
67 | 842 s | COCCN1C(=O)c2cc(-c3ccccc3)nn2CC1(C)C(=O)NCc1ccccc1 (stereo not drawn)
68 | 1060 s | O=C(NCc1ccco1)C1CCN(c2ncccc2-c2nc(-c3cccc(Cl)c3)no2)CC1
69 | 707 s | CC(Cc1ccco1)NC(=O)C1CCN(Cc2cn(C)c3ccc(Cl)cc23)CC1 (stereo not drawn)
70 | 1110 s | COC(=O)C1=C(NC(=O)COc2ccc(Cl)cc2Cl)CCS1
71 | 882 s | CCCC(CCC)C(=O)NCc1nnnn1-c1ccc(OCC)cc1
72 | 1130 s | COc1ccccc1-c1noc(Cn2c(=O)n(Cc3ccccc3Cl)c(=O)c3sccc32)n1
73 | 829 s | O=C(NCc1ccco1)C1CCN(c2nc3ccsc3c(=O)n2Cc2ccccc2)CC1
74 | 634 s | CC(C)CC(=O)N1CCN(c2nc(CN3CCC(C)CC3)cs2)CC1
75 | 588 s | Cc1cc(Nc2ccc(NC(=O)c3cnccn3)cc2)nc(N2CCCCC2)n1
76 | 916 s | CC1Oc2ccc(S(=O)(=O)N3CCC(C(=O)Nc4ccc(C(C)C)cc4)CC3)cc2NC1=O (stereo not drawn)
77 | 744 s | CCCNC(=O)C1Cc2cc(S(=O)(=O)N3CCCCCC3)ccc2N1C(C)=O (stereo not drawn)
78 | 831 s | CCOC(=O)c1nc(Nc2ccc(C)cc2C)c2ccccc2n1
79 | 803 s | O=C(N[C@H]1C[C@@H]2C[C@H]1CN2S(=O)(=O)c1ccc2c(c1)OCCO2)c1ccccc1
80 | 1050 s | Cc1ccc(N2CC(c3nc(-c4ccc5c(c4)OCO5)no3)CC2=O)cc1Cl (stereo not drawn)
81 | 812 s | CCn1nccc1C(=O)N1CCCC1c1cccc(F)c1 (stereo not drawn)
82 | 735 s | O=C1NCCOCCN(S(=O)(=O)c2cccc3cccnc23)[C@@H]2CCCC[C@H]12
83 | 909 s | COc1ccc(Cl)cc1NC(=O)N1CCC2(CC1)N=C(c1ccccc1)C(=O)N2
84 | 806 s | CN(CC1(C)CCOCC1)C(=O)c1ccccc1Br
85 | 719 s | CCc1ccccc1NC(=O)N1CCCC(Cn2cnc3cccnc32)C1 (stereo not drawn)
86 | 1180 s | O=S(=O)(Nc1ccc(-c2noc(-c3ccc(Cl)cc3)n2)cc1)c1cccs1

Row | Compound | RP-LC retention time
87 | CCOc1ccc([C@H]2N(c3cc(C)on3)C(=O)[C@@H]3CCCN32)cc1 | 743 s
88 | CCC1=C[C@@H]2CN3CCc4c([nH]c5ccccc45)[C@@](C(=O)OC)(C2)[C@@H]13 | 728 s
